The values that follow come from ChEMBL document CHEMBL1126615, “Structure-activity relationships in prazosin-related compounds. 2. Role of the piperazine ring on alpha-blocking activity” (J Med Chem, 1993).

Test [1] concerns the target T1, Adrenergic receptor alpha-2 (Rattus norvegicus, UniProt P22086+P19328+P22909).
T1 sequence (P22086 whole entry): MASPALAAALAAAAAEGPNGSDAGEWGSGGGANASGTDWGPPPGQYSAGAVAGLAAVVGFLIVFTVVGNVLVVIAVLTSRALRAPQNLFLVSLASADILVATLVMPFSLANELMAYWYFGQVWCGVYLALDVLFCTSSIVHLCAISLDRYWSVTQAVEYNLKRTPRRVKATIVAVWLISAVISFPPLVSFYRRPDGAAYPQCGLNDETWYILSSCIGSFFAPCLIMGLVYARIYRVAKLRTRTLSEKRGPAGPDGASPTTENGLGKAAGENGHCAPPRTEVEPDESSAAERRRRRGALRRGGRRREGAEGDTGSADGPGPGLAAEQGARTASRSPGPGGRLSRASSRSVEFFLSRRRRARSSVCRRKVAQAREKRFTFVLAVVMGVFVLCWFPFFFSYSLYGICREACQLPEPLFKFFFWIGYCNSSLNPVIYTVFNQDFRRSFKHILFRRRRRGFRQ
T1 sequence (P19328 whole entry): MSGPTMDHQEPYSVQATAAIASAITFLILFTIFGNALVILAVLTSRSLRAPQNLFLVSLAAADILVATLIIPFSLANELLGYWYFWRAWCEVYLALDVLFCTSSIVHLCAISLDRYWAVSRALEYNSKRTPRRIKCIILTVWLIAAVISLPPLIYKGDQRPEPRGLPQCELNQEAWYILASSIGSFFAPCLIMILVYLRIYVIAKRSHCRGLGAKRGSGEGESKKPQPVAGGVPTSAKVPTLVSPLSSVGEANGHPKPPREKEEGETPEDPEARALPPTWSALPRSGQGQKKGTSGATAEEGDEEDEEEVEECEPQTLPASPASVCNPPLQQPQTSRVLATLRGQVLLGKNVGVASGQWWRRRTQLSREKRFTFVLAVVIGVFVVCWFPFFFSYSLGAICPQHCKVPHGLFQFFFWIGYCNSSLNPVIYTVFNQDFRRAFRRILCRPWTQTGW
T1 sequence (P22909 whole entry): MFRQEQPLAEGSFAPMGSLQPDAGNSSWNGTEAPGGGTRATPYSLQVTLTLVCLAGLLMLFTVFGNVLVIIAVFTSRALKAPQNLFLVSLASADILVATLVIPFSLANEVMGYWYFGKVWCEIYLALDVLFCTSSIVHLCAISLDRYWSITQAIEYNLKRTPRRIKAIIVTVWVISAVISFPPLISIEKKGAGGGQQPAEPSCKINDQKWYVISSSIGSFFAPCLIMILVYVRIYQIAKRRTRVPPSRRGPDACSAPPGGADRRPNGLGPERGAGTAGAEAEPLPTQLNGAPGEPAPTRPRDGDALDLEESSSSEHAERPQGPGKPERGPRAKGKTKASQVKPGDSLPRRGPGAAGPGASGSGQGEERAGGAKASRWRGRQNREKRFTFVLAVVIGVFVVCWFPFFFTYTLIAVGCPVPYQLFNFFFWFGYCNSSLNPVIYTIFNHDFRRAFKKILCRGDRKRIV
The experiment in a line: Alpha-2 Adrenoceptor blocking activity as antagonism of clonidine-induced depression of field-stimulated prostatic rat vas deferens. The class given is functional, tissue-based.

Test [2] addresses T2, Adrenergic receptor alpha-1 (Rattus norvegicus, UniProt P15823+P23944+P43140).
T2 sequence (P15823 whole entry): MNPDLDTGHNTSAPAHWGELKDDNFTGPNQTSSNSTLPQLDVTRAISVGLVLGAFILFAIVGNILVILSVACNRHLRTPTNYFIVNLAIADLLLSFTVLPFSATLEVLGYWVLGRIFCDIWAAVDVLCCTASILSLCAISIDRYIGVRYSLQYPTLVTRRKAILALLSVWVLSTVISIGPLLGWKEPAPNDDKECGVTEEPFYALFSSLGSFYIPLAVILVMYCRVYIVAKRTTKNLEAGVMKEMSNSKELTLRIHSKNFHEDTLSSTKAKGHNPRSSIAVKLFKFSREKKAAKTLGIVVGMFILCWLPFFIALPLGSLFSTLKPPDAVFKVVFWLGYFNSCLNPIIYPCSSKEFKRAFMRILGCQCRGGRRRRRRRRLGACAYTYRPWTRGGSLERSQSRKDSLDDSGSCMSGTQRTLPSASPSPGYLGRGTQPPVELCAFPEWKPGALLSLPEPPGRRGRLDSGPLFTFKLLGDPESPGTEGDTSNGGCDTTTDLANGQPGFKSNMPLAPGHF
T2 sequence (P23944 whole entry): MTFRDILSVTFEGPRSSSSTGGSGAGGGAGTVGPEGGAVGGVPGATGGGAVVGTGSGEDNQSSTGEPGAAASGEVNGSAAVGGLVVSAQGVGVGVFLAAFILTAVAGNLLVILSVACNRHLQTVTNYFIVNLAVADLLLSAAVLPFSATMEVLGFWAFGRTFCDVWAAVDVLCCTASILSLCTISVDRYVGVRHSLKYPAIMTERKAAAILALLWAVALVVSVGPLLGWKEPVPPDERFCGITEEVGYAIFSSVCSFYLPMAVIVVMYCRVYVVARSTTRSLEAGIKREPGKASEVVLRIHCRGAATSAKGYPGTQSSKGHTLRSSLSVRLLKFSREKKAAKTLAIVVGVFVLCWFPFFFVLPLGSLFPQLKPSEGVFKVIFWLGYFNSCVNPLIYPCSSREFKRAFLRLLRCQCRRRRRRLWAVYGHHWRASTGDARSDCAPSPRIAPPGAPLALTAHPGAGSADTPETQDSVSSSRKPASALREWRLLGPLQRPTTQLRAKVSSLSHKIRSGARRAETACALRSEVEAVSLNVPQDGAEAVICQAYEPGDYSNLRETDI
T2 sequence (P43140 whole entry): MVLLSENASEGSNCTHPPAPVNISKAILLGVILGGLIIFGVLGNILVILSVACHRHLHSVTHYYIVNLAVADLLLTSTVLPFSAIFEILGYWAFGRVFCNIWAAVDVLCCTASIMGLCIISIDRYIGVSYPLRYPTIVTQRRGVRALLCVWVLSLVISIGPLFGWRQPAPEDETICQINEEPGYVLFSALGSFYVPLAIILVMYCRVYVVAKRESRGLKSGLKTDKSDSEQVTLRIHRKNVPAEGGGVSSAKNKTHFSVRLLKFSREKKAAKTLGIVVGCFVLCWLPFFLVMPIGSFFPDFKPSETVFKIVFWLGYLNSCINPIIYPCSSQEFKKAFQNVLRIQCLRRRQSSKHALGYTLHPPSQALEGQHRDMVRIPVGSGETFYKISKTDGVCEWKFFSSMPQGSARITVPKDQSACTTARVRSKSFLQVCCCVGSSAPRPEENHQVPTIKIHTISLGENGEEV
The experiment in a line: Alpha-1 Adrenoceptor blocking activity as antagonism of norepinephrine-induced contractions of epididymal portion of rat vas deferens. In kind it is functional, tissue-based.

Test [3] is described as follows: The alpha1/alpha2 selectivity ratio is the antilog of the difference between pA2 values at alpha1 and alpha-2 adrenoceptor. The class given is functional.

For orientation: pA2 means a measure of antagonist potency on a negative log scale. High values mean higher antagonist potency, low ones lower antagonist potency. As to `CCC1[C@@H](CC)N(c2nc(N)c3cc(OC)c(OC)cc3n2)CCN1C(=O)c1ccco1` (stereo in doubt; 11) [listing 1 of 2 here], the figures for the pA2 in test [1] and in test [2] were 5.91 and 8.55, respectively.

For `COc1cc2nc(N(C)[C@@H]3CCCCC3N(C)C(=O)c3ccco3)nc(N)c2cc1OC` (stereo in doubt; 5) [listing 1 of 2 here], the pA2 amounted to 5.41 in test [1] and 5.8 in test [2].

Take `CCC1[C@@H](CC)N(c2nc(N)c3cc(OC)c(OC)cc3n2)CCN1C(=O)c1ccco1` (stereo in doubt; 12) [listing 1 of 2 here]: the Selectivity ratio in test [3] was determined as 110.

Take `COc1cc2nc(NC3CCCCC3NC(=O)c3ccco3)nc(N)c2cc1OC` (cis isomer) [listing 1 of 2 here]: the Selectivity ratio in test [3] was 0.6.

As for `COc1cc2nc(N3CCN(C(=O)c4ccco4)C(C)[C@H]3C)nc(N)c2cc1OC` (stereo in doubt; 9) [listing 1 of 2 here], the Selectivity ratio in test [3] is 220.

Regarding `CCC1[C@@H](CC)N(c2nc(N)c3cc(OC)c(OC)cc3n2)CCN1C(=O)c1ccco1` (stereo in doubt; 11) [listing 2 of 2 here], in test [3], the Selectivity ratio was 440.

As to `COc1cc2nc(NC3CCCCC3NC(=O)c3ccco3)nc(N)c2cc1OC` (trans isomer) [listing 1 of 2 here], the Selectivity ratio in test [3] is 11.

For the compound `COc1cc2nc(N3CCN(C(=O)c4ccco4)C(C)C3)nc(N)c2cc1OC` (stereo not drawn), the pA2 in test [1] was determined as 5.23; in test [2] it was 8.61. In test [3], the Selectivity ratio is 2100.

In test [1], `COc1cc2nc(N3CCN(C(=O)c4ccco4)C4CCCC[C@@H]43)nc(N)c2cc1OC` (stereo in doubt; 13) had a pA2 of 5.08.

As to `COc1cc2nc(N(C)[C@@H]3CCCCC3N(C)C(=O)c3ccco3)nc(N)c2cc1OC` (stereo in doubt; 6) [listing 1 of 2 here], in test [3], the Selectivity ratio was 1.2.

For the compound `CCC1[C@@H](CC)N(c2nc(N)c3cc(OC)c(OC)cc3n2)CCN1C(=O)c1ccco1` (stereo in doubt; 12) [listing 2 of 2 here], the pA2 in test [1] was 5.05; in test [2], 7.09.

On to `COc1cc2nc(N3CCN(C(=O)c4ccco4)C(C)[C@H]3C)nc(N)c2cc1OC` (stereo in doubt; 10) [listing 1 of 2 here], for which the pA2 in test [1] was 4.86; in test [2], 7.12.

Turning to `COc1cc2nc(N(C)CCCCCCN(C)C(=O)c3ccco3)nc(N)c2cc1OC`, in test [3], the Selectivity ratio came out at 120.

For `COc1cc2nc(N3CCN(C(=O)c4ccco4)C(C)[C@H]3C)nc(N)c2cc1OC` (stereo in doubt; 9) [listing 2 of 2 here], the pA2 is listed as 6.41 in test [1] and 8.75 in test [2].

On to `COc1cc2nc(N3CCN(C(=O)c4ccco4)C(C)[C@H]3C)nc(N)c2cc1OC` (stereo in doubt; 10) [listing 2 of 2 here], for which, in test [3], the Selectivity ratio amounted to 180.

In the case of `COc1cc2nc(NC3CCCCC3NC(=O)c3ccco3)nc(N)c2cc1OC` (cis isomer) [listing 2 of 2 here], the pA2 in test [1] stood at 5.96; in test [2], 5.74.

For `COc1cc2nc(N3CCN(C(=O)c4ccco4)C[C@H]3C)nc(N)c2cc1OC`, the pA2 in test [1] was 5.94; in test [2], 8.13. The Selectivity ratio in test [3] is 150.

In the case of `COc1cc2nc(N3CCN(C(=O)c4ccco4)C4CCCC[C@@H]43)nc(N)c2cc1OC` (stereo in doubt; 14), the pA2 in test [1] worked out at 5.15.

In the case of `COc1cc2nc(NC3CCCCC3NC(=O)c3ccco3)nc(N)c2cc1OC` (trans isomer) [listing 2 of 2 here], the pA2 in test [1] worked out at 5.04; in test [2] it was 6.07.

Take `COc1cc2nc(N(C)[C@@H]3CCCCC3N(C)C(=O)c3ccco3)nc(N)c2cc1OC` (stereo in doubt; 5) [listing 2 of 2 here]: the Selectivity ratio in test [3] worked out at 2.5.

Regarding `COc1cc2nc(N(C)[C@@H]3CCCCC3N(C)C(=O)c3ccco3)nc(N)c2cc1OC` (stereo in doubt; 6) [listing 2 of 2 here], the pA2 in test [1] was 5.54; in test [2], 5.64.
